# Source: article PMC10452181, “Synthesis and Biological Evaluation of Cyclobutane-Based β3 Integrin Antagonists: A Novel Approach to Targeting Integrins for Cancer Therapy” (Cancers, 2023)
# Like-named read-outs stand apart in the source and are kept apart here.
# What was measured:
# M14 cells = experiment: cells; type: cell-based, human; details: 24 h
# Method: M14 cells (4 × 10^5/mL in RPMI 1640 medium) were seeded in six-well plates and incubated at 37 °C in a 5% CO2 humidified atmosphere for 48 h. The resulting confluent monolayer was scratched with a sterile P200 pipette tip to create a gap (approximately 2 cm in length and 650 μm in width) in the centre of the well. The medium was removed, and the cells washed with Hank’s balanced salt solution (HBSS) (1 mL) and replaced with a medium containing the test antagonist. After 24 h, the cells were washed twice with HBSS and fixed with ice-pre-cooled methanol for thirty minutes at −20 °C. Following hydration with two washes in PBS, the monolayers were counterstained with Harris’s haematoxylin solution for two minutes, then washed in tap water for one minute and left to dry at room temperature. The plates were observed using an inverted microscope, and digital images captured.
# The anti-αvβ3 activity of selected compounds was confirmed in a wound-healing assay (Figure 3). A number of cell lines were initially investigated for their suitability in this assay. The Sk-Mel-2 cell line which adhered well to fibronectin in the adhesion assay migrated very slowly; therefore, M14 melanoma cells which combined high levels of αvβ3 with rapid migration and low levels of proliferation over the assay period (Supplementary Figure S4) were selected.
# in vitro = type: cell-based, human; details: human
# Method: (§1) Before use in cell-based assays of integrin function, the effect of compounds on cell proliferation was tested using the MTT assay to avoid adhesion results being confounded by cell death (Supplementary Table S1). The effect of compounds on cell adhesion was then initially tested at a single, nontoxic concentration to identify active antagonists for further characterisation; those displaying a promising activity in the adhesion assay were tested at a wider range of concentrations to determine the IC50 (Table 2). […] Nevertheless, it is a cost-effective initial screening method. page 4: Table S1. Cytotoxicity of compounds on the cell lines used in the functional assays (measured by MTT assay). Cells (2000 cells/well for Sk-Mel-2; 1 x 10^4 cells/mL for M14) were incubated for 96 hours at 37 ° C in a total volume of 200 μL/well (180 μL medium + 20 μ L test compound solution). After 96 hours, the medium was replaced by fresh medium containing 0.5 mg/ml (end conc.) MTT per well, incubated for 4 h then the plate processed and read as described in the main text. […] ICT9053 41 naphthyridine 1 NHSO2Mes H Ester 52.6 ± 0.6 72.7 ± 9.8 ICT9065 42 naphthyridine 1 H H Ester >100 - ICT9079 43 naphthyridine 0 NHSO2Mes H Ester ~100 - ICT9061 44 naphthyridineT 1 NHSO2Mes H Ester 46.8 ± 10.7 - […] Ester 65.4 ± 11.1 >100 […] Ester 9.6 ± 5.7 >100 […] Ester >100 - […] Ester 54.6 ± 11.0 - […] Ester >5 3.3 ± 0.8 […] ICT9028 51 pyrimidine 2 NHSO2Ph H Acid >100 - ICT9031 52 pyrimidineT 1 NHSO2Mes H Acid >100 - ICT9090 53 pyrimidineT 2 NHSO2Mes H Acid >50 - ICT9029 54 pyrimidineT 2 NHSO2Ph H Acid >100 - ICT9063 55 naphthyridine 1 NHSO2Mes H Acid 61.7 ± 2.8 - […] Acid 45.5 ± 7.9 >100 […] 42.5 ± 1.8 >50 RGDS >50 - T trans configuration of cyclobutane sidechains.
# [1] = Cytotoxicity by MTT assay, 96 h, M14; type: cell-based, human; details: human
# Method: as §1
# αvβ3 = target: T1, αvβ3 (Homo sapiens, UniProt P05106+P06756); experiment: Sk-Mel-2 cell adhesion to immobilised fibronectin (cell-binding assay, MTT readout); type: cell-based; details: Sk-Mel-2 adhesion to Fn, mean ± SD
# T1 construct: endogenous in cells; host or cells: SK-Mel-2 melanoma cells
# T1 sequence (P06756 31-889 limits assumed): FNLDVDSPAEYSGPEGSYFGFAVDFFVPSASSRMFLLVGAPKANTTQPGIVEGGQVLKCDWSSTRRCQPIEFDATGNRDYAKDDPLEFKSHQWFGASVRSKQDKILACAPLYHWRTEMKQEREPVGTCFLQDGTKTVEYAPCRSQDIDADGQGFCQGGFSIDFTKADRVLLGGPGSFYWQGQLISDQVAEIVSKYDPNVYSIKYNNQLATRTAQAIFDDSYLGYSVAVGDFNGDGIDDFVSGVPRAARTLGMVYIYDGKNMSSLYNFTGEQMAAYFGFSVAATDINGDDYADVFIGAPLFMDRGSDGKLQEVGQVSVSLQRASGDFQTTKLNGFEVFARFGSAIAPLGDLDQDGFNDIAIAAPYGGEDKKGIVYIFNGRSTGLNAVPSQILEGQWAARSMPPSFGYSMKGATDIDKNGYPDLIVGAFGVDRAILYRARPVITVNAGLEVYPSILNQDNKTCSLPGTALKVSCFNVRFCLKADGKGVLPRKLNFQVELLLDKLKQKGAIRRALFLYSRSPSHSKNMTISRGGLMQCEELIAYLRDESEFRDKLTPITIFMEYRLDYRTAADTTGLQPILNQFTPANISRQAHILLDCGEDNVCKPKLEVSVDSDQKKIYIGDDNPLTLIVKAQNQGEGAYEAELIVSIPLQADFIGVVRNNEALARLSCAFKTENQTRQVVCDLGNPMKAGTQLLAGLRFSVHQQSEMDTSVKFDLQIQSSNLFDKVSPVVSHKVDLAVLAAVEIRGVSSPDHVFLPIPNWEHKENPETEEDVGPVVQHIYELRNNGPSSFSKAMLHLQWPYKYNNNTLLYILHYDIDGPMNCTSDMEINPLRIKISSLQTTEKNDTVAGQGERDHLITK
# T1 sequence (P06756 891-1048 partner limits assumed): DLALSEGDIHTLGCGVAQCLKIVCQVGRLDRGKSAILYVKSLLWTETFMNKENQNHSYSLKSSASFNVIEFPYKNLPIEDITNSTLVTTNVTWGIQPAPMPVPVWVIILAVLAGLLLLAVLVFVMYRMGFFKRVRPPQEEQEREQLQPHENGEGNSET
# T1 sequence (P05106 27-788): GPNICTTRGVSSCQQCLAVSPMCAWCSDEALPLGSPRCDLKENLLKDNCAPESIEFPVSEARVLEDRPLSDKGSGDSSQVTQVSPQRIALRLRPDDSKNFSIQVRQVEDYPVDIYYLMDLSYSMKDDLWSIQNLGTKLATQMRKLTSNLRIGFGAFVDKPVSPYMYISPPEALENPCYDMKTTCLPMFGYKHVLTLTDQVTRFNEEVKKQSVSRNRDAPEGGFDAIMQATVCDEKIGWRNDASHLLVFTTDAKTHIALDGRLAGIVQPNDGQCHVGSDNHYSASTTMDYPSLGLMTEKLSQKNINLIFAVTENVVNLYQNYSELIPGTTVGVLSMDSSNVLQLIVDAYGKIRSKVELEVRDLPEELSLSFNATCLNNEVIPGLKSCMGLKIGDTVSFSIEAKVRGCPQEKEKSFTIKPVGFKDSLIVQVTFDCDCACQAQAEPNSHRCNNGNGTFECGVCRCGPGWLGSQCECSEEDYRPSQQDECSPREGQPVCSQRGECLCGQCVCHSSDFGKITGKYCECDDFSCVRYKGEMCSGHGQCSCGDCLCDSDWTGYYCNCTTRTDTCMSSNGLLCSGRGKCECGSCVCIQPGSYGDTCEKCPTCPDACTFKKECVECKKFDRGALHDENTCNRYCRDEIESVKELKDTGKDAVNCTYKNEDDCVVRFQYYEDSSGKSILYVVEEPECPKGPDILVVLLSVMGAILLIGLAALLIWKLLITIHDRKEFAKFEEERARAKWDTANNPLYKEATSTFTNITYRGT
# Method: First, 96-well plates (Corning, VWR) were coated overnight at 4 °C with 0.5 μg/well fibronectin (Sigma). SK-Mel-2 cells were trypsinised, washed and resuspended in RPMI medium only at 10^5 cells/mL. Cells (100 µL/well) were treated with compound (DMSO final concentration 0.1%) at the indicated concentration for 4 hrs on a rotary shaker. Plates were washed (3 × PBS) and blocked with PBS/5% BSA for 2 hrs at 37 °C prior to adding the cells. Cells were incubated on the plates at 37 °C in a humidified chamber with 5% CO2 for 1 hr. The plates were washed 3× with PBS and a 200 µL/well RPMI medium containing 10% FCS added. The plates were incubated overnight at 37 °C as above. Finally, 0.5 mg/mL of 3-(4,5-dimethythiazol-2-yl)-2,5-diphenyl tetrazolium bromide (MTT) was added to each well and the plates incubated for a further 4 h. The medium was removed, and the insoluble formazan dissolved in 150 µL of DMSO. Absorbance was measured at 540 nm using a Thermo Multiskan EX (Thermofisher, UK)and Ascent Software (v2.6). Total binding was determined based on controls lacking any compounds (100% binding) in fibronectin-coated wells and uncoated wells blocked with BSA (0% binding) and corrected for background (no cells, fibronectin-coated).
# As an initial test of anti-β3 activity, the ability of compounds to inhibit the adhesion of melanoma cells expressing high levels of αvβ3 and low levels of other RGD-binding integrins such as αvβ5 and α5β1 to immobilised fibronectin was evaluated.
# Cells were seeded onto precoated plates in the presence or absence of putative antagonists and the number of adherent cells quantified colorimetrically.
# platelet aggregation = experiment: ADP-induced platelet aggregation in hirudin-treated whole blood (ex vivo); type: cell-based, human; details: ADP 6.4 μM, 100 μM
# Method: 2.7. Platelet Aggregation Assay
# Platelet aggregation was measured in hirudin-anticoagulated whole blood from a healthy donor with ADP as agonist (end concentration 6.4 μM) using a Multiplate® impedance aggregometer (Dynabyte Informationssysteme GmbH, Munich, Germany). At 37 °C, cells were charged with 300 μL of saline, 300 μL of blood, 1 μL of compound (0.1% DMSO) and incubated for 3 min. The agonist was added and the increase in electrical impedance measured from 2 electrode pairs/cell for 6 min, transformed into arbitrary units (AU), and the area under the curve was calculated.
# Sk-Mel-2 = experiment: in vitro; type: cell-based, human
# Method: as §1
# M14 = experiment: Cytotoxicity by MTT assay, 96 h, M14; type: cell-based, human; details: MTT, 96 hours
# Method: as §1
# αIIbβ3 = target: T2, αIIbβ3 (Homo sapiens, UniProt P05106+P08514); experiment: αIIbβ3/fibrinogen purified protein binding ELISA; details: mean ± SD
# T2 construct: purchased Sigma
# T2 sequence (P08514 32-887 limits assumed): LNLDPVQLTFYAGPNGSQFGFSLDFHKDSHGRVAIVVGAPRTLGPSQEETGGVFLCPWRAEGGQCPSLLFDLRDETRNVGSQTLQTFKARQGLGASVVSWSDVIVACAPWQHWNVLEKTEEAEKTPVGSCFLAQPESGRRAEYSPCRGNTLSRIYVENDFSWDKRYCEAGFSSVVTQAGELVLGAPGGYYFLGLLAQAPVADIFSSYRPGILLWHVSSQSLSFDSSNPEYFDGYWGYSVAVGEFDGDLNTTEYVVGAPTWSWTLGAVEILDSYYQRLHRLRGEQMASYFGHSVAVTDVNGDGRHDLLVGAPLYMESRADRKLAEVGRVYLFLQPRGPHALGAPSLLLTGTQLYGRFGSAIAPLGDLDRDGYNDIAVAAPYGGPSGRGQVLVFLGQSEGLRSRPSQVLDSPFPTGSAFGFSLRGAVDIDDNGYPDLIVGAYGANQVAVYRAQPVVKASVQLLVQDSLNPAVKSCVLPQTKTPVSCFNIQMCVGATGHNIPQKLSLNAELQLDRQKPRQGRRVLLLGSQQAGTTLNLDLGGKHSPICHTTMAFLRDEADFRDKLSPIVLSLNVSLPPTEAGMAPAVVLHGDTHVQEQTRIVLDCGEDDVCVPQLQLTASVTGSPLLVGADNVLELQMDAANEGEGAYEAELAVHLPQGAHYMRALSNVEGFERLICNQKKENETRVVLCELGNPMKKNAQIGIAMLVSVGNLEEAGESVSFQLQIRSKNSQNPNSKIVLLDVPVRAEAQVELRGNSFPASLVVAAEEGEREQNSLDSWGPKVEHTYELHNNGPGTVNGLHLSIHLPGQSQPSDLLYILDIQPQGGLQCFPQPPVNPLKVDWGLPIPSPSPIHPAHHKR
# T2 sequence (P08514 891-1039 partner limits assumed): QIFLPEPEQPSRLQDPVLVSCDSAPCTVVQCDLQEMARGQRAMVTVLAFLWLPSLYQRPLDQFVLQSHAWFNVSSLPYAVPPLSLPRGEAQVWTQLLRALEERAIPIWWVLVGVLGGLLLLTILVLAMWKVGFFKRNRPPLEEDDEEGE
# T2 sequence (P05106 27-788): as the sequence (P05106 27-788) above
# Method: ELISA assays were performed as previously described with minor modifications. Briefly, serial dilutions of compounds were prepared in dimethyl sulfoxide (DMSO). C8 Maxi Immuno modules (Fisher Scientific) were incubated overnight at 4 °C with 0.5 μg/well of fibrinogen (Sigma) in sterile phosphate buffered saline (PBS, 0.2 g/L KCl, 8.0 g/L NaCl, 0.2 KH2PO4, 1.15 g/L Na2HPO4, pH 7.4). All subsequent wash steps were performed using 25 mM Tris, pH 7.6, 150 mM NaCl, 1 mM MnCl2, 1 mg/mL BSA, and binding/inhibition was carried out in 25 mM Tris, pH 7.6, 150 mM NaCl, 1 mM MnCl2, 1 mM MgCl2, 1 mM CaCl2, 1 mg/mL BSA.
# Wells were washed and blocked with a blocking solution (PBS, 0.1% Tween 20, 3% BSA) for 1 h at 37 °C. Compounds were added to the wells at indicated concentrations (final 0.5% DMSO) in the presence of 0.5 µg/well αIIbβ3 (Sigma) and incubated at room temp for 1 h. After 3 washes, primary anti-αIIb (1:200 dilution, Santa Cruz Biotech, Heidelberg, Germany) and antigoat–HRP (1:500 dilution, Dako, Agilent, Santa Clara, CA, USA) were added at room temp for 1 h. The wells were washed and incubated with 0.1 mg/mL tetra-methylbenzidine (Sigma) for 25 min and the reaction was stopped with 1N H2SO4 (100 μL/well). The absorbance was measured at 450 nm using a Multiscan Spectrum reader (Thermo Scientific, Thermofisher, UK) and SkanIT RE (v2.4.4.5) software. Results were plotted as percent binding vs. log concentration and IC50 values determined.
structure (smiles),measurement,setting,value
"CC(C)[C@@H]1NC(=O)[C@@H](Cc2ccccc2)NC(=O)[C@H](CC(=O)O)NC(=O)CNC(=O)[C@H](CCCNC(=N)N)NC1=O [cRGDfV, reference compound]",IC50,M14 cells,4 ± 0.07 µM
same,IC50 at 96 h,in vitro,42.5 ± 1.8 µM
same,IC50 at 96 h,[1],> 50 µM
"NC(N)=NCCC[C@H](N)C(=O)NCC(=O)N[C@@H](CC(=O)O)C(=O)N[C@@H](CO)C(=O)O [RGDS, reference compound]",inhibition at 5 µM,αvβ3; 5 μM,68.5 ± 29.1%
same,inhibition at 50 µM,αvβ3; 50 μM,45.8 ± 16.6%
same,IC50 at 96 h,in vitro,> 50 µM
"COC(=O)CCNC(=O)C1CC(CCCNc2ncccn2)C1 (stereo not drawn) [ICT9003 22, 3-({3-[3-(Pyrimidin-2-ylamino)-propyl]-cyclobutanecarbonyl}-amino)-propionic acid methyl ester]",IC50,"M14 cells; Homo sapiens, M14 scratch wound, mean ± SD, read-out: Migration IC50",4.8 ± 0.2 µM
same,melting point,,94 to 95 °C
same,IC50 at 96 h,in vitro,> 100 µM
same,IC50 at 96 h,"[1]; M14 cells, MTT, 96 hours, read-out: M14 IC50 (cytotoxicity)",> 100 µM
"COC(=O)[C@H](CNC(=O)[C@H]1C[C@H](CCc2ccc3c(n2)NCCC3)C1)NS(=O)(=O)c1c(C)cc(C)cc1C [ICT9055 46, (S)-methyl 3-((1r,3r)-3-(2-(5,6,7,8-tetrahydro-1,8-naphthyridin-2-yl)ethyl)cyclobutanecarboxamido)-2-(2,4,6-trimethylphenylsulfonamido)propanoate]",IC50,"M14 cells; M14 scratch wound, mean ± SD, read-out: Migration IC50",< 0.1 µM
same,Adhesion % Inhibition @ 5 μM,αvβ3; 5 μM,98.4 ± 1.9%
same,IC50,αvβ3,0.34 ± 0.33 µM
same,% Inhibition (Platelet Aggregation) @ 100 μM,platelet aggregation,5.6%
same,IC50,Sk-Mel-2,9.6 ± 5.7 µM
same,IC50,M14,> 100 µM
same,% Inhibition (αIIbβ3/Fg) @ 50 μM,αIIbβ3; 50 μM,0 ± 9.8%
same,IC50,αIIbβ3; read-out: IC50 (αIIbβ3/Fg),> 50 µM
